Assays:
[1] = Whole blood stability, dog; type: in vitro ADME; conditions: 37° C.; for half-life at 5 µM: read-out: Whole Blood Stability (T1/2) (converted)
Description: (§1) Representative compounds of the invention were tested for their whole blood stability as follows:
(§2) Test compounds were prepared as a 500 μM stock solution in DMSO (Adding 10 μl of 10 mM DMSO stock solution to 190 μl of 100% DMSO). Whole blood was thawed on ice. A whole blood plate was prepared by adding 460 μl of the whole blood (different species as needed) to a 96-well in ml deep well plate. The whole blood plate was preincubated at 37° C. for 10 min. 4 μl of compound solution and 396 μl of whole blood was added to the plate and mixed thoroughly. Each sample was aliquoted (30 μl) to the incubation plate (cluster tubes) and quenched at time zero with ice-cold 100% ACN, and the incubation plates were added to the 37° C. incubator (200 μl).
(§3) The time zero sample was maintained at 4° C. until centrifuged. All other samples were quench at different time points (1, 2, 4 hr), vortexed for 30 seconds and centrifuged at 3500 rpm for 15 min at 4° C. 30 μl of supernatant was added to 170 μl 0.1% FA aqueous solution and the sample was analyzes by LC/MS/MS.

[2] = Whole blood stability, monkey; type: in vitro ADME; conditions: 37° C.; for half-life at 5 µM: read-out: Whole Blood Stability (T1/2) (converted)
Description: as §1, §2, §3

[3] = target: T1, KRAS G12C 1-169, his-tagged protein, GDP-loaded (Homo sapiens, UniProt P01116, G12C); experiment: KRAS G12C covalent binding (% modification) by mass spectrometry, ten or three minute incubation
T1 construct: KRAS G12C 1-169, his-tagged protein, GDP-loaded
How it was run: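 GDP-loaded protein in 20 mM Hepes, 150 mM NaCl, 1 mM MgCl2 was incubated with compound (final 100, 30 or 10 μM; 2% DMSO) at room temperature, then quenched with formic acid. Intact-protein LC-MS with charge-envelope deconvolution gave masses and intensities of modified and unmodified species.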

[4] = covalent binding to KRAS G12C after a ten minute incubation period
[5] = covalent binding to KRAS G12C, % modification after a three minute incubation period

| SMILES | half-life at 5 µM [1] [h] | half-life at 5 µM [2] [h] | also measured |
| --- | --- | --- | --- |
| C=CC(=O)N1CCN(c2nc(OCCN3CC(F)(F)C3)nc3c(F)c(-c4c(O)cccc4F)c(Cl)cc23)CC1 [C, reference compound] | 0.6 | 0.2 | – |
| C=CC(=O)N1[C@H](C)CN(c2nc(N3CC(N(C)C)C3)nc3c(F)c(-c4c(O)cccc4F)c(Cl)cc23)C[C@@H]1C [Compound 68, 1-((2R,6S)-4-((R)-6-chloro-2-(3-(dimethylamino)azetidin-1-yl)-8-fluoro-7-(2-fluoro-6-hydroxyphenyl)quinazolin-4-yl)-2,6-dimethylpiperazin-1-yl)prop-2-en-1-one] | 1.6 | 1 | – |
| C=CC(=O)N1CCN(c2nc(N3CC(N(C)C)C3)nc3c(F)c(-c4c(O)cccc4F)c(Cl)cc23)CC1 [B, reference compound] | 0.7 | 0.1 | – |
| C=CC(=O)N1CCN(c2nc(N3CC(N(C)C)C3)nc3c(F)c(-c4c(C)ccc5cn[nH]c45)c(Cl)cc23)C[C@H]1C (atropisomer, axis not shown) [Compound 70, 1-((R)-4-((R)-6-chloro-2-(3-(dimethylamino)azetidin-1-yl)-8-fluoro-7-(6-methyl-1H-indazol-7-yl)quinazolin-4-yl)-2-methylpiperazin-1-yl)prop-2-en-1-one] | 3 | 1.3 | – |
| C=CC(=O)N1C[C@H](C)N(c2nc(N3CC(N(C)C)C3)nc3c(F)c(-c4c(C)ccc5cn[nH]c45)c(Cl)cc23)C[C@H]1C (atropisomer, axis not shown) [Compound 72, 1-((2R,5S)-4-((R)-6-chloro-2-(3-(dimethylamino)azetidin-1-yl)-8-fluoro-7-(6-methyl-1H-indazol-7-yl)quinazolin-4-yl)-2,5-dimethylpiperazin-1-yl)prop-2-en-1-one] | – | – | Whole Blood Stability (T1/2) [1]: 5.95 h; Binding % [3, 4]: +++ (+++ indicates binding activity greater than 90%); Whole Blood Stability (T1/2) [2]: 3.9 h |
| C=CC(=O)N1CCN(c2nc(N3CC(N(C)C)C3)nc3c(F)c(-c4c(O)cccc4F)c(Cl)cc23)C[C@H]1C (atropisomer, axis not shown) [Compound 60, 1-((R)-4-((S)-6-chloro-2-(3-(dimethylamino)azetidin-1-yl)-8-fluoro-7-(2-fluoro-6-hydroxyphenyl)quinazolin-4-yl)-2-methylpiperazin-1-yl)prop-2-en-1-one] | 2.3 | 1.45 | – |
| C=CC(=O)N1C[C@H](C)N(c2nc(OCCCN3CC(F)(F)C3)nc3c(F)c(-c4c(C)ccc5[nH]ncc45)c(Cl)cc23)C[C@H]1C [Compound 248, 1-((2R,5S)-4-(6-chloro-2-(3-(3,3-difluoroazetidin-1-yl)propoxy)-8-fluoro-7-(5-methyl-1H-indazol-4-yl)quinazolin-4-yl)-2,5-dimethylpiperazin-1-yl)prop-2-en-1-one] | – | – | Binding % [3, 5]: ++ (++ indicates binding activity from 50 to 90%) |
| C=CC(=O)N1C[C@H](C)N(c2nc(OCCn3cnnc3)nc3c(F)c(-c4c(O)cccc4F)c(Cl)cc23)C[C@H]1C (atropisomer, axis not shown) [Compound 280, 1-((2R,5S)-4-(2-(2-(4H-1,2,4-triazol-4-yl)ethoxy)-6-chloro-8-fluoro-7-((S)-2-fluoro-6-hydroxyphenyl)quinazolin-4-yl)-2,5-dimethylpiperazin-1-yl)prop-2-en-1-one] | – | – | Binding % [3, 5]: +++ (+++ indicates binding activity greater than 90%) |

The next lines start with results.

| half-life at 5 µM [1] [h] | half-life at 5 µM [2] [h] | SMILES | also measured |
| --- | --- | --- | --- |
| 1.3 | 1.2 | C=CC(=O)N1CCN(c2nc(OCCN3CC(F)(F)C3)nc3c(F)c(-c4c(O)cccc4F)c(Cl)cc23)C[C@H]1C (atropisomer, axis not shown) [Compound 63, 1-((R)-4-((S)-6-chloro-2-(2-(3,3-difluoroazetidin-1-yl)ethoxy)-8-fluoro-7-(2-fluoro-6-hydroxyphenyl)quinazolin-4-yl)-2-methylpiperazin-1-yl)prop-2-en-1-one] | – |
| 4.8 | 3.9 | C=CC(=O)N1C[C@H](C)N(c2nc(OCCN(CC)CC)nc3c(F)c(-c4c(O)cccc4F)c(Cl)cc23)C[C@H]1C (atropisomer, axis not shown) [Compound 75, 1-((2R,5S)-4-((S)-6-chloro-2-(2-(diethylamino)ethoxy)-8-fluoro-7-(2-fluoro-6-hydroxyphenyl)quinazolin-4-yl)-2,5-dimethylpiperazin-1-yl)prop-2-en-1-one] | – |
| 5.1 | 6.8 | C=CC(=O)N1C[C@H](C)N(c2nc(N3CC(N(C)C)C3)nc3c(F)c(-c4c(O)cccc4F)c(Cl)cc23)C[C@H]1C (atropisomer, axis not shown) [Compound 52, 1-((2R,5S)-4-((S)-6-chloro-2-(3-(dimethylamino)azetidin-1-yl)-8-fluoro-7-(2-fluoro-6-hydroxyphenyl)quinazolin-4-yl)-2,5-dimethylpiperazin-1-yl)prop-2-en-1-one] | Binding % [3, 4]: +++ (+++ indicates binding activity greater than 90%) |
| 3 | – | C=CC(=O)N1C[C@H](C)N(c2nc(OCCN3CC(F)(F)C3)nc3c(F)c(-c4c(O)cccc4F)c(Cl)cc23)C[C@H]1C [Compound 38, 1-((2R,5S)-4-(6-chloro-2-(2-(3,3-difluoroazetidin-1-yl)ethoxy)-8-fluoro-7-(2-fluoro-6-hydroxyphenyl)quinazolin-4-yl)-2,5-dimethylpiperazin-1-yl)prop-2-en-1-one] | Binding % [3, 4]: +++ (+++ indicates binding activity greater than 90%); Whole Blood Stability (T1/2) [2]: 7.8 h |
| 0.6 | 0.1 | C=CC(=O)N1CCN(c2nc(OCCN(CC)CC)nc3c(F)c(-c4c(O)cccc4F)c(Cl)cc23)CC1 [A, reference compound] | – |
